Reference: the NIST ThermoML archive (doi:10.1016/j.fluid.2015.12.055)

Conditions: Liquid, Vibrating tube method

CCn1cc[n+](C)c1.O=S(=O)([N-]S(=O)(=O)C(F)(F)C(F)(F)F)C(F)(F)C(F)(F)F
Conditions	mass density [kg/m3]
273.15 K, 101.33 kPa	1621.64
283.15 K, 101.33 kPa	1610.4
293.15 K, 101.33 kPa	1599.21
298.15 K, 101.33 kPa	1593.65
303.15 K, 101.33 kPa	1588.12
313.15 K, 101.33 kPa	1577.13
313.15 K, 497 kPa	1577.9
313.15 K, 1001 kPa	1578.46
313.15 K, 1999 kPa	1579.57
313.15 K, 3003 kPa	1580.67
313.15 K, 4007 kPa	1581.77
313.15 K, 5000 kPa	1582.86
313.15 K, 6004 kPa	1583.94
323.15 K, 101.33 kPa	1566.23
333.15 K, 101.33 kPa	1555.4
343.15 K, 101.33 kPa	1544.63
353.15 K, 101.33 kPa	1533.92
363.15 K, 101.33 kPa	1523.27

CCn1cc[n+](C)c1.O=S(=O)([N-]S(=O)(=O)C(F)(F)F)C(F)(F)F
Conditions	mass density [kg/m3]
273.15 K, 101.33 kPa	1544.43
283.15 K, 101.33 kPa	1534.1
293.15 K, 101.33 kPa	1523.89
298.15 K, 101.33 kPa	1518.83
303.15 K, 101.33 kPa	1513.78
313.15 K, 101.33 kPa	1503.75
313.15 K, 508 kPa	1504.27
313.15 K, 1002 kPa	1504.75
313.15 K, 1999 kPa	1505.7
313.15 K, 3001 kPa	1506.65
313.15 K, 3997 kPa	1507.6
313.15 K, 5001 kPa	1508.55
313.15 K, 6005 kPa	1509.49
323.15 K, 101.33 kPa	1493.8
333.15 K, 101.33 kPa	1483.92
343.15 K, 101.33 kPa	1474.1
353.15 K, 101.33 kPa	1464.36
363.15 K, 101.33 kPa	1454.67

CCn1cc[n+](C)c1.O=S(=O)([O-])C(F)(F)C(F)(F)C(F)(F)C(F)(F)F
Conditions	mass density [kg/m3]
298.15 K, 101.33 kPa	1546.54
303.15 K, 101.33 kPa	1541.24
313.15 K, 101.33 kPa	1530.71
313.15 K, 510 kPa	1530.15
313.15 K, 1007 kPa	1530.64
313.15 K, 2007 kPa	1531.73
313.15 K, 3005 kPa	1532.82
313.15 K, 4004 kPa	1533.91
313.15 K, 5000 kPa	1534.99
313.15 K, 5999 kPa	1536.06
323.15 K, 101.33 kPa	1520.31
333.15 K, 101.33 kPa	1510.01
343.15 K, 101.33 kPa	1499.78
353.15 K, 101.33 kPa	1489.64
363.15 K, 101.33 kPa	1479.58

CCn1cc[n+](C)c1.F[B-](F)(F)F [1-ethyl-3-methylimidazolium tetrafluoroborate]
Conditions	mass density [kg/m3]
293.15 K, 101.33 kPa	1283.53
298.15 K, 101.33 kPa	1279.7
303.15 K, 101.33 kPa	1275.89
313.15 K, 101.33 kPa	1268.33
313.15 K, 503 kPa	1268.82
313.15 K, 999 kPa	1269.09
313.15 K, 2001 kPa	1269.74
313.15 K, 2998 kPa	1270.26
313.15 K, 4000 kPa	1270.93
313.15 K, 5002 kPa	1271.59
313.15 K, 6000 kPa	1272.21
323.15 K, 101.33 kPa	1260.85
333.15 K, 101.33 kPa	1253.45
343.15 K, 101.33 kPa	1246.11
353.15 K, 101.33 kPa	1238.83
363.15 K, 101.33 kPa	1231.6
